Measurements from patent US11202789B2, “Method of treating glycogen storage disease” (Viking Therapeutics, Inc., priority 2016, dated 2021).
“Also recorded” adds a separate entry of the source.

Experiments:
Format in all cases: in vivo
[1] = tested on: male diet-induced obese (DIO) C57Bl/6 mice; test: 2, 5 and 10 week study in mouse model of diet-induced obesity
Protocol: Objectives: The objectives of this study were to evaluate the effects of 2, 5 and 10 weeks of Compound 2 treatment at doses of 10 and 30 mg/kg/day on total plasma cholesterol levels, blood glucose levels, and hepatic steatosis in a mouse model of diet-induced obesity.
Methods: Male C57Bl/6 mice (4 weeks old) were fed a high-fat diet (60% fat by kcal) for 88 days to induce obesity, hyperlipidemia, and mild hyperglycemia prior to initiation of the study. For the study, 3 groups of mice (n=24-28) were dosed daily by gavage with 10 or 30 mg/kg of Compound 2 or vehicle (0.1% carboxymethylcellulose) and maintained on the same high-fat diet. During treatment, body weight, total plasma cholesterol levels, and blood glucose levels of the animals were measured weekly. Subsets of animals (n=6-12; 30 mg/kg/day) were sacrificed prior to treatment and after 2, 5 and 10 weeks of treatment for analysis of liver weights, liver triglyceride levels and liver histology.

male ob/ob mice = test: 9-week efficacy and safety study in male ob/ob mice; details: for total plasma cholesterol levels lower: after 9 weeks; for liver triglyceride levels lower: at 9 weeks
Protocol: The objective of this study was to evaluate the efficacy and safety of Compound 2 treatment at doses of 3, 10, and 30 mg/kg/day for 9 weeks in male ob/ob mice. 3,3′,5-Triiodo-L-thyronine (T3) was used as a comparator in this study.
Methods: Seventy-eight adult male ob/ob mice were assigned to six different treatment groups (n=6-24/group). Animals were dosed daily with either vehicle [1% carboxymethylcellulose (CMC) in water, PO], T3 [(100 nmole/kg/day in aqueous solution, subcutaneous (SC)], or Compound 2 [3, 10 or 30 mg/kg/day in 1% CMC, PO]. Blood glucose and plasma cholesterol were measured weekly in all animals. Subsets of animals in the vehicle-treated and 30 mg/kg/day Compound 2-treated groups were sacrificed after 3, 6 and 9 weeks of treatment to analyze the temporal effects of Compound 2 on liver weight and liver triglyceride levels. Liver triglyceride levels, liver glycogen content, heart, liver and epididymal fat pad weights, and plasma clinical chemistry parameters were measured at sacrifice.

[2] = tested on: male Zucker Diabetic fatty (ZDF) rats; test: 4-week (28 days) efficacy and safety study in male Zucker Diabetic fatty (ZDF) rats
Protocol: Objectives: The objective of the study was to evaluate the efficacy and safety of Compound 2 treatment for 4 weeks in male Zucker Diabetic fatty (ZDF) rats. Total plasma cholesterol, blood glucose levels, liver and muscle glycogen levels, and a plasma clinical chemistry were evaluated. Additionally, histological and biochemical assessments of hepatic steatosis were performed post-mortem. MB07875, a known human thyroid hormone receptor ligand, was included as a comparator in these studies.
Methods: Eight-week old male ZDF rats (n=5/group) were treated orally with Compound 2 or MB07875 for 28 days. The doses of Compound 2 [in 0.5% carboxymethylcellulose (CMC)] were 0.25, 0.5, 1, 2.5, 5, 15 and 50 mg/kg/day. The dose of MB07875 (in 0.5% CMC) was 0.2 mg/kg/day. Body weight was assessed just prior to treatment and at 24 hours following the last dose. Total plasma cholesterol and blood glucose were measured on a weekly basis. […] In addition, the liver was removed and weighed, and a portion freeze-clamped for glycogen and triglyceride analysis. Another portion was placed in 10% neutral buffered formalin for hematoxalin and eosin (H & E) staining. Finally, the heart was excised and weighed.

G6PC−/− mice = test: G6pc−/− mouse model of GSD Ia, 4 days of treatment (Example 13)
Protocol: The objective of this study was to determine the ability of Compound 2, a small molecule prodrug of a potent thyroid hormone beta receptor (TBR) agonist, to reduce hepatic steatosis and other metabolic derangements in the glucose-6-phosphatase catalytic subunit knockout (G6pc−/−) mouse model of glycogen storage disease type Ia (GSD Ia).
Mice were treated with Compound 2 or with vehicle, using 4 groups of 6-7 mice: G6pc−/−mice receiving Compound 2, G6pc−/−mice receiving vehicle, Wt mice receiving Compound 2, and WT mice receiving vehicle. Daily injection of 0.1 to 0.2 mL 10% dextrose subcutaneously was initiated at 3 days of age for all mice, and all mice continued to receive daily dextrose injections throughout drug or vehicle treatment. Dextrose was not administered on the day of tissue collection. Mice were treated daily with Compound 2 or with vehicle, respectively, from 5 to 8 days of age. Mice were sacrificed on Day 9, and blood and tissues were collected. The fasting serum glucose and triglycerides, hepatic lipid and glycogen content, and GSD-related cell signaling pathways were examined.

[3] = 10 and 30 mg/kg/day, following 2, 5 and 10 weeks, vs vehicle
[4] = Compound 2 0.25-50 mg/kg/day oral, 28 days

## Cc1cc(OCP2(=O)OCCC(c3cccc(Cl)c3)O2)cc(C)c1Cc1ccc(O)c(C(C)C)c1 (stereo not drawn) [Compound 2]
[1]; 30 mg/kg/day, after 2, 5 and 10 weeks, vs vehicle
  macrovesicular and microvesicular steatosis (liver histology): visually reduced
[1]; 10 and 30 mg/kg/day by gavage, most time points, vs vehicle
  blood glucose levels lower: up to 25%
[1]; 10 and 30 mg/kg/day by gavage, week 1 through end of study, vs vehicle
  total plasma cholesterol levels decreased: more than 50%
[1]; [3]
  liver weights lower: ~50%
  liver-to-body weight ratios lower: ~40%
[1]; 10 and 30 mg/kg/day, up to 10 weeks
  body weight gain: tended to reduce
[1]; 10 and 30 mg/kg/day, weeks 2, 5 and 10, vs vehicle
  total liver triglyceride content (mg/liver) lower: up to 60%
[1]; 10 or 30 mg/kg/day, any time point, vs vehicle
  liver triglyceride concentrations (mg/g liver): No significant changes
Male ob/ob mice; 3 mg/kg/day PO, vs vehicle
  total plasma cholesterol levels lower: ~43%
Male ob/ob mice; 10 mg/kg/day PO, 9 weeks, vs vehicle (FIG. 5)
  liver glycogen content: significantly (p<0.05) higher
Male ob/ob mice; 10 mg/kg/day PO, vs vehicle
  total plasma cholesterol levels lower: ~42%
  liver triglyceride levels lower: ~39%
Male ob/ob mice; 30 mg/kg/day PO, vs vehicle
  total plasma cholesterol levels lower: ~47%
  liver triglyceride levels lower: ~46%
Male ob/ob mice; 30 mg/kg/day PO, from Week 3 onwards, vs vehicle
  liver triglyceride levels: lower
Male ob/ob mice; Compound 2-treated groups (3, 10, 30 mg/kg/day PO), 9 weeks, vs vehicle
  terminal liver glycogen levels: modestly higher or similar
Male ob/ob mice; all dose groups (3, 10, 30 mg/kg/day PO)
  alanine aminotransferase (ALT) levels: Decreased
Male ob/ob mice; all dose groups (3, 10, 30 mg/kg/day PO), 9 weeks, vs vehicle
  terminal liver weights: lower
[2]; 1 mg/kg/day oral, day 28, vs vehicle
  reduction of total plasma cholesterol: ~25%
[2]; 2.5 mg/kg/day oral, day 28
  total bilirubin increased: ~86%
[2]; 2.5 mg/kg/day oral, day 28, vs vehicle
  blood glucose levels decreased: ~47%
[2]; 15 mg/kg/day oral, day 28
  albumin-to-globulin ratio increased: 21%
  blood urea nitrogen decreased: ~21%
[2]; 50 mg/kg/day oral, 28 days, dose-dependent
  liver glycogen levels reduced: > 90%
[2]; 50 mg/kg/day oral, day 28
  albumin-to-globulin ratio increased: 32%
  alkaline phosphatase decrease: ~42%
  blood urea nitrogen decreased: ~26%
  calcium levels decreased: ~5%
  phosphorus levels increased: ~27%
  total bilirubin increased: ~79%
  total protein levels decreased: ~10%
[2]; 50 mg/kg/day oral, day 28, vs vehicle
  reduction of total plasma cholesterol: ~34%
[2]; [4]
  effect on body weight: no significant effect
  effect on heart weight: no significant effect
  liver triglyceride content: no statistically significant decrease
[2]; Compound 2 0.25-50 mg/kg/day oral, 28 days, vs vehicle
  muscle glycogen levels: unaffected; also recorded: no significant differences
[2]; Compound 2-treated groups (0.25-50 mg/kg/day), any time during the study
  blood glucose levels: not increased
[2]; doses of 5 mg/kg/day and above, oral, day 28
  globulin decreased: ≤ 25%
[2]; doses ≥2.5 mg/kg/day oral, 28 days
  microvesicular steatosis, histological analysis of liver sections: decrease
[2]; highest dose evaluated (50 mg/kd/day), after 28 days of dosing
  decrease in liver glycogen levels relative to vehicle: ~90%
[2]; up to 50 mg/kg/day oral, 28 days
  cardiovascular function (heart rate, systolic and diastolic aortic pressure, LV dP/dt): did not alter
G6PC−/− mice; G6pc−/− mice (FIG. 23B)
  difference in kidney mass as a percentage of total body mass, Compound 2 vs vehicle: not significant
G6PC−/− mice; G6pc−/− mice, 4 days of drug treatment, vs vehicle-treated controls, p<0.0001
  mean total liver triglycerides reduced: 69.0%
G6PC−/− mice; G6pc−/− mice, drug treatment (vehicle 729.59 mg/dL)
  mean serum triglyceride concentration: 336.58 mg/dL
G6PC−/− mice; G6pc−/− mice, drug treatment vs vehicle
  decrease in mean serum triglyceride concentration: 54.0%
G6PC−/− mice; G6pc−/− mice, following 4 days of drug treatment (vehicle 13.550 mg)
  mean total liver triglycerides: 4.210 mg
G6PC−/− mice; G6pc−/− mice, lower detection limit of the glucometer (FIG. 27)
  blood glucose measurements: < 20 mg/dL
G6PC−/− mice; G6pc−/− mice, treated (control 393.55 mg)
  mean liver weights: 253.11 mg
G6PC−/− mice; G6pc−/− mice, treated vs control, p<0.05
  mean liver weights reduced: over 30%
G6PC−/− mice; daily treatment from 5 to 8 days of age (FIG. 22)
  body mass: not affected
G6PC−/− mice; daily treatment from 5 to 8 days of age (FIG. 23)
  kidney mass: not affected
G6PC−/− mice; under the dosing parameters chosen (FIG. 26)
  liver glycogen concentration: no significant changes
G6PC−/− mice; under the dosing parameters chosen (FIG. 27)
  serum glucose concentration: no significant changes
G6PC−/− mice; under the dosing parameters chosen (FIG. 28)
  serum triglyceride concentration: no significant changes
